Reference: ChEMBL document CHEMBL1158254, “HIV inhibitory natural products. 26. Quinoline alkaloids from Euodia roxburghiana” (J Nat Prod, 1996)
pIC50: −log10 of the molar value. Activity calls are given as the source filed them. The calls are words filed in the database; no cut-off is given here.

Assays:
[1] = system: Human immunodeficiency virus 1; test: Antiviral activity against HIV1 infected in CEM-SS cells assessed as virus-induced cytopathic effect by XTT assay; type: functional, organism-based; settings: for pIC50: Human immunodeficiency virus 1, CEM-SS
[2] = biological target: Human immunodeficiency virus type 1 reverse transcriptase (Human immunodeficiency virus 1, UniProt Q72547); test: Inhibition of HIV1 reverse transcriptase

Structure (SMILES)	Activity [1]	pIC50 [2]	pIC50 [1]
COC(=O)/C(C)=C/COc1ccc2c(OC)c3ccoc3nc2c1	inactive		
CC(C)=CCOc1c(CC=C(C)C)c(O)nc2ccccc12		5.10	4.57
COc1c2ccc(OCC[C@H](C)O)cc2nc2occc12	inactive		
COC(=O)[C@@H](C)CCOc1ccc2c(OC)c3ccoc3nc2c1	inactive		
C=CC(C)(C)C1(CC=C(C)C)C(=O)Nc2ccccc2C1=O (configuration not stated) [BUCHAPINE]		4.92	4.54
